Results published in PubChem BioAssay AID2060613 (Molecular Pharmacology Branch, DTP, NCI, 2025).
Values joined by “and” are separate entries in the source; they are usually repeats but may differ in a detail not shown here. Identical values can stand only once.

System: 233499-124-R-J3-PDC complex spheroid viability
Test: Anticancer human tumor 233499-124-R-J3-PDC patient-derived colon adenocarcinoma cell line growth inhibition [CLK]
Conditions: for viability, T/C: stronger effect = lower value
How it was run: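 Patient-derived tumor cells grown as complex spheroids with HUVEC endothelial cells and mesenchymal stem cells, treated with drug combinations. Concentrations descend in half-log steps from near clinical Cmax, or from 10 microM if Cmax unknown.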

[1] = curve of first compound, second compound 0.0316 µM
[2] = curve of first compound, second compound 0.1 µM
[3] = curve of first compound, second compound 0.316 µM
[4] = curve of first compound, second compound 1 µM
[5] = curve of first compound, second compound 3.16 µM
[6] = curve of first compound, second compound 10 µM
[7] = second compound 0.0316 µM, first compound 0.0316 µM
[8] = second compound 0.0316 µM, first compound 0.1 µM
[9] = second compound 0.0316 µM, first compound 0.316 µM
[10] = second compound 0.0316 µM, first compound 1 µM
[11] = second compound 0.0316 µM, first compound 3.16 µM
[12] = second compound 0.0316 µM, first compound 10 µM
[13] = second compound 0.1 µM, first compound 0.0316 µM
[14] = second compound 0.1 µM, first compound 0.1 µM
[15] = second compound 0.1 µM, first compound 0.316 µM
[16] = second compound 0.1 µM, first compound 1 µM
[17] = second compound 0.1 µM, first compound 3.16 µM
[18] = second compound 0.1 µM, first compound 10 µM
[19] = second compound 0.316 µM, first compound 0.0316 µM
[20] = second compound 0.316 µM, first compound 0.1 µM
[21] = second compound 0.316 µM, first compound 0.316 µM
[22] = second compound 0.316 µM, first compound 1 µM
[23] = second compound 0.316 µM, first compound 3.16 µM
[24] = second compound 0.316 µM, first compound 10 µM
[25] = second compound 1 µM, first compound 0.0316 µM
[26] = second compound 1 µM, first compound 0.1 µM
[27] = second compound 1 µM, first compound 0.316 µM
[28] = second compound 1 µM, first compound 1 µM
[29] = second compound 1 µM, first compound 3.16 µM
[30] = second compound 1 µM, first compound 10 µM
[31] = second compound 3.16 µM, first compound 0.0316 µM
[32] = second compound 3.16 µM, first compound 0.1 µM
[33] = second compound 3.16 µM, first compound 0.316 µM
[34] = second compound 3.16 µM, first compound 1 µM
[35] = second compound 3.16 µM, first compound 3.16 µM
[36] = second compound 3.16 µM, first compound 10 µM
[37] = second compound 10 µM, first compound 0.0316 µM
[38] = second compound 10 µM, first compound 0.1 µM
[39] = second compound 10 µM, first compound 0.316 µM
[40] = second compound 10 µM, first compound 1 µM
[41] = second compound 10 µM, first compound 3.16 µM
[42] = second compound 10 µM, first compound 10 µM
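Further: spheroids exposed to the drug combinations for seven days.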
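Wherever viability, T/C is given: percent viability relative to DMSO vehicle control wells taken as 100%.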

CC(=O)O[C@H]1C(=O)[C@@]2(C)[C@H]([C@H](OC(=O)c3ccccc3)[C@]3(O)C[C@H](OC(=O)[C@H](O)[C@@H](NC(=O)c4ccccc4)c4ccccc4)C(C)=C1C3(C)C)[C@]1(OC(C)=O)CO[C@@H]1C[C@@H]2O + CNC(=O)c1ccc(Nc2nc(OC3CCCC3)c3c(-c4ccc5nc(C)oc5c4)c[nH]c3n2)c(OC)c1
IC50 [1]: 140 nM | IC50 [2]: > 10000 nM | IC50 [3]: > 10000 nM | IC50 [4]: > 10000 nM | IC50 [5]: > 10000 nM | IC50 [6]: > 10000 nM | viability, T/C [7]: 80% | viability, T/C [8]: 59.4% | viability, T/C [9]: 18.2% | viability, T/C [10]: 21.5% | viability, T/C [11]: 31.4% | viability, T/C [12]: 37.7% | viability, T/C [13]: 81.2% | viability, T/C [14]: 66% | viability, T/C [15]: 50.7% | viability, T/C [16]: 78.5% | viability, T/C [17]: 72.9% | viability, T/C [18]: 66.5% | viability, T/C [19]: 67.9% | viability, T/C [20]: 81% | viability, T/C [21]: 84.8% | viability, T/C [22]: 90.6% | viability, T/C [23]: 78.8% | viability, T/C [24]: 68.4% | viability, T/C [25]: 91.2% | viability, T/C [26]: 85.9% | viability, T/C [27]: 77.5% | viability, T/C [28]: 72.5% | viability, T/C [29]: 96.3% | viability, T/C [30]: 66.7% | viability, T/C [31]: 77% | viability, T/C [32]: 87.8% | viability, T/C [33]: 89.5% | viability, T/C [34]: 90.5% | viability, T/C [35]: 83.3% | viability, T/C [36]: 74.2% | viability, T/C [37]: 67.5% | viability, T/C [38]: 82.3% | viability, T/C [39]: 79.1% | viability, T/C [40]: 79% | viability, T/C [41]: 81.1% | viability, T/C [42]: 85.8%

CC1COCCN1c1cc(C2(S(C)(=N)=O)CC2)nc(-c2ccnc3[nH]ccc23)n1 (configuration not stated) + CNC(=O)c1ccc(Nc2nc(OC3CCCC3)c3c(-c4ccc5nc(C)oc5c4)c[nH]c3n2)c(OC)c1
IC50 [1]: 9040 nM | IC50 [2]: 8710 nM | IC50 [3]: 6660 nM | IC50 [4]: 5520 nM | IC50 [5]: 3240 nM | IC50 [6]: 4410 nM | viability, T/C [7]: 90% | viability, T/C [8]: 103% | viability, T/C [9]: 77.8% | viability, T/C [10]: 87.5% | viability, T/C [11]: 89.7% | viability, T/C [12]: 46.2% | viability, T/C [13]: 76.6% | viability, T/C [14]: 76.9% | viability, T/C [15]: 71.6% | viability, T/C [16]: 70.1% | viability, T/C [17]: 70.5% | viability, T/C [18]: 47.2% | viability, T/C [19]: 81.3% | viability, T/C [20]: 88.1% | viability, T/C [21]: 74% | viability, T/C [22]: 76.6% | viability, T/C [23]: 68% | viability, T/C [24]: 40.3% | viability, T/C [25]: 86.4% | viability, T/C [26]: 59.8% | viability, T/C [27]: 61.8% | viability, T/C [28]: 74.1% | viability, T/C [29]: 61.7% | viability, T/C [30]: 36.8% | viability, T/C [31]: 72.8% | viability, T/C [32]: 77.6% | viability, T/C [33]: 82.5% | viability, T/C [34]: 70.3% | viability, T/C [35]: 50.8% | viability, T/C [36]: 30.5% | viability, T/C [37]: 69.5% | viability, T/C [38]: 69.3% | viability, T/C [39]: 69.2% | viability, T/C [40]: 63.8% | viability, T/C [41]: 59.6% | viability, T/C [42]: 29%

CC(=O)O[C@H]1C(=O)[C@@]2(C)[C@H]([C@H](OC(=O)c3ccccc3)[C@]3(O)C[C@H](OC(=O)[C@H](O)[C@@H](NC(=O)c4ccccc4)c4ccccc4)C(C)=C1C3(C)C)[C@]1(OC(C)=O)CO[C@@H]1C[C@@H]2O + CN1CCN(c2cc(C(=O)Nc3cc4cc(-c5cnn(C)c5)ccc4cn3)ccn2)CC1
IC50 [1]: 69.9 nM | IC50 [2]: 57.7 nM | IC50 [3]: 39.4 nM | IC50 [4]: < 31.6 nM | IC50 [5]: < 31.6 nM | IC50 [6]: < 31.6 nM | viability, T/C [7]: 79.9% | viability, T/C [8]: 36.4% | viability, T/C [9]: 15.7% | viability, T/C [10]: 14.2% | viability, T/C [11]: 14.4% | viability, T/C [12]: 21.8% | viability, T/C [13]: 77.1% | viability, T/C [14]: 25.5% | viability, T/C [15]: 11.9% | viability, T/C [16]: 10.2% | viability, T/C [17]: 12% | viability, T/C [18]: 15.1% | viability, T/C [19]: 57.5% | viability, T/C [20]: 18.2% | viability, T/C [21]: 15.6% | viability, T/C [22]: 11.5% | viability, T/C [23]: 13.8% | viability, T/C [24]: 11.9% | viability, T/C [25]: 0.76% | viability, T/C [26]: 1.44% | viability, T/C [27]: 1.17% | viability, T/C [28]: 1.02% | viability, T/C [29]: 0.56% | viability, T/C [30]: 0.53% | viability, T/C [31]: 0.61% | viability, T/C [32]: 0.63% | viability, T/C [33]: 0.56% | viability, T/C [34]: 0.52% | viability, T/C [35]: 0.59% | viability, T/C [36]: 0.74% | viability, T/C [37]: 0.46% | viability, T/C [38]: 0.45% | viability, T/C [39]: 0.39% | viability, T/C [40]: 0.43% | viability, T/C [41]: 0.43% | viability, T/C [42]: 0.39%

COc1cccc2c1C(=O)c1c(O)c3c(c(O)c1C2=O)CC(O)(C(=O)CO)CC3OC1CC(N)C(O)C(C)O1 (configuration not stated)
viability, T/C (compound 0.0316 µM): 92.5% and 101% | viability, T/C (compound 0.1 µM): 99% and 94.5% | viability, T/C (compound 0.316 µM): 81.5% and 67.5% | viability, T/C (compound 1 µM): 72.2% and 48.1% | viability, T/C (compound 3.16 µM): 45.6% and 21.7% | viability, T/C (compound 10 µM): 17.3% and 17.5% | IC50 (curve of compound): 2610 nM and 781 nM

CC(C)CC(NC(=O)C(Cc1ccccc1)NC(=O)c1cnccn1)B(O)O (configuration not stated)
viability, T/C (compound 0.000949 µM): 101% and 106% | viability, T/C (compound 0.003 µM): 88.8% and 88.5% | viability, T/C (compound 0.00949 µM): 0.33% and 0.18% | viability, T/C (compound 0.03 µM): 0.31% and 0.22% | viability, T/C (compound 0.0949 µM): 0.13% and 0.2% | viability, T/C (compound 0.3 µM): 0.14% and 0.2% | IC50 (curve of compound): 4.97 nM and 4.96 nM

Nc1ccn(C2OC(CO)C(O)C2(F)F)c(=O)n1 (configuration not stated) + CNC(=O)c1ccc(Nc2nc(OC3CCCC3)c3c(-c4ccc5nc(C)oc5c4)c[nH]c3n2)c(OC)c1
IC50 [1]: 71.3 nM | IC50 [2]: 125 nM | IC50 [3]: 121 nM | IC50 [4]: 42.4 nM | IC50 [5]: 39.9 nM | IC50 [6]: 44.1 nM | viability, T/C [7]: 80.5% | viability, T/C [8]: 37.3% | viability, T/C [9]: 11.7% | viability, T/C [10]: 13.9% | viability, T/C [11]: 22.5% | viability, T/C [12]: 13.7% | viability, T/C [13]: 56.8% | viability, T/C [14]: 57.8% | viability, T/C [15]: 18.3% | viability, T/C [16]: 22% | viability, T/C [17]: 18.2% | viability, T/C [18]: 18.3% | viability, T/C [19]: 65.2% | viability, T/C [20]: 56.8% | viability, T/C [21]: 15.7% | viability, T/C [22]: 8.6% | viability, T/C [23]: 14.8% | viability, T/C [24]: 14.3% | viability, T/C [25]: 63% | viability, T/C [26]: 12% | viability, T/C [27]: 13.7% | viability, T/C [28]: 9.36% | viability, T/C [29]: 10.2% | viability, T/C [30]: 8.84% | viability, T/C [31]: 53.5% | viability, T/C [32]: 36% | viability, T/C [33]: 11.4% | viability, T/C [34]: 5.38% | viability, T/C [35]: 6.79% | viability, T/C [36]: 5.11% | viability, T/C [37]: 53.4% | viability, T/C [38]: 41.7% | viability, T/C [39]: 11.5% | viability, T/C [40]: 6.13% | viability, T/C [41]: 5.83% | viability, T/C [42]: 4.84%
